Each compound was assayed on apple scab pathogen (Venturia inaequalis) (assay: Apple scab control test). Details: 336 h, 125 ppm drug solution sprayed onto apple seedlings (Orin), lesion area ratio 2 weeks after inoculation.
Type: in vivo
Procedure: 5 parts by weight of the dihydropyrimidine compound of the present invention, 93.5 parts by weight of N,N-dimethylformamide, and 1.5 parts by weight of polyoxyethylene sorbitan monolaurate (TWEEN® 20) were mixed and dissolved to obtain an emulsion (I) including 5% of an active ingredient.
The control value was calculated by the following expression. Control value (%)=100−{lesion area ratio in treated group/lesion area ratio in untreated group}×100 [Expression 1]
Water was added to the emulsion (I) such that the concentration of the dihydropyrimidine compound reached 125 ppm to dissolve the emulsion, and a drug solution was obtained. Subsequently, the drug solution was sprayed onto apple seedlings (variety: “Orin”, leaf stage: 3 to 4) cultivated in seedling pots. After air drying, the seedlings were inoculated with conidiospores of an apple scab pathogen (Venturia inaequalis) (treated group). As a control, apple seedlings that were not sprayed with the drug solution were inoculated in the same manner (untreated group). The seedlings were left to stand in a humidified room at 20° C. using a 12 hour light/dark cycle.
On the day 2 weeks after the inoculation, the leaves of the apple seedlings were visually observed to determine the lesion area ratio, and the control value was calculated.
Work on CCOC(=O)C(C)(C)Cn1c(=O)c(/C(C)=N/OC(C)C)cn(CC(=O)c2cc(F)ccc2OC)c1=O [A-3] yielded a pest or weed control at 125 ppm of no less than 75%.
Compound C=CCON=Cc1cn(CC(OCCC#N)c2cc(F)ccc2OC)c(=O)n(C(C)C(=O)NC(C)C)c1=O (centres unmarked) [A-5] has a pest or weed control at 125 ppm of no less than 75%.
Compound CON=Cc1cn(CC(OCCC#N)c2cc(F)ccc2OC)c(=O)n(C(C)C(=O)NC(C)C)c1=O (centres unmarked) [A-6] has a pest or weed control at 125 ppm of no less than 75%.
Compound CCON=Cc1cn(CC(O)c2cc(F)ccc2OC)c(=O)n(CC(C)(C)C(=O)NC(C)C)c1=O (centres unmarked) [A-8] has a pest or weed control at 125 ppm of no less than 75%.
With COc1ccc(F)cc1C(Cn1cc(C=NOCC2CC2)c(=O)n(C(C)C(=O)NC(C)C)c1=O)OCCC#N (centres unmarked) [A-9] the pest or weed control at 125 ppm was no less than 75%.
CCON=Cc1cn(CC(OCCC#N)c2cc(F)ccc2OC)c(=O)n(CC(C)(C)C(=O)OCC)c1=O (centres unmarked) [A-13] gave a pest or weed control at 125 ppm of no less than 75%.
With CCON=Cc1cn(CC(O)c2cc(F)ccc2OC)c(=O)n(CC(C)(C)C(=O)OCC)c1=O (centres unmarked) [A-15] the pest or weed control at 125 ppm was no less than 75%.
Work on CCON=Cc1cn(CC(OCCC#N)c2cc(F)ccc2OC)c(=O)n(CCNC(=O)c2ccc(F)cc2)c1=O (centres unmarked) [A-16] yielded a pest or weed control at 125 ppm of no less than 75%.
For CCON=Cc1cn(CC(O)c2cc(F)ccc2OC)c(=O)n(CCNC(=O)OC(C)(C)C)c1=O (centres unmarked) [A-19], the pest or weed control at 125 ppm was no less than 75%.
For CCON=Cc1cn(CC(=O)c2cc(F)ccc2OC)c(=O)n(CCNC(=O)OC(C)(C)C)c1=O [A-20], the pest or weed control at 125 ppm was no less than 75%.
C#CCON=Cc1cn(CC(OCCC#N)c2cc(F)ccc2OC)c(=O)n(C(C)C(=O)NC(C)C)c1=O (centres unmarked) [A-21] showed a pest or weed control at 125 ppm of no less than 75%.
Compound COc1ccc(F)cc1C(Cn1cc(C=NOCC(F)(F)F)c(=O)n(C(C)C(=O)NC(C)C)c1=O)OCCC#N (centres unmarked) [A-22] has a pest or weed control at 125 ppm of no less than 75%.
With CCO/N=C(\C)c1cn(CC(=O)c2cc(F)ccc2OC)c(=O)n(CC(C)(C)C(=O)NC(C)C)c1=O [A-26] the pest or weed control at 125 ppm was no less than 75%.
With CCO/N=C(\C)c1cn(CC(=O)c2cc(F)ccc2OC)c(=O)n(CCNC(=O)C(C)C)c1=O [A-36, N-(2-(5-(1-(ethoxyimino)ethyl)-3-(2-(5-fluoro-2-methoxyphenyl)-2-oxoethyl)-2,6-dioxo-3,6-dihydropyrimidin-1(2H)-yl)ethyl)isobutyramide] the pest or weed control at 125 ppm was no less than 75%.
With COc1cccc(C(O)Cn2cc(/C(C)=N/OC(C)C)c(=O)n(C[C@H](C)NC(=O)C(C)C)c2=O)c1 (some centres unmarked) [A-40] the pest or weed control at 125 ppm was no less than 75%.
Compound CCO/N=C(\C)c1cn(/C=C(\OC(=O)C(C)C)c2cc(F)ccc2OC)c(=O)n(C2CCCC2NC(=O)C(C)C)c1=O (centres unmarked) [A-44] has a pest or weed control at 125 ppm of no less than 75%.
Compound COc1ccc(F)cc1C(Cn1cc(C=NOC(C)C)c(=O)n(C(C)C(=O)N2CCSCC2)c1=O)OCCC#N (centres unmarked) [A-67] has a pest or weed control at 125 ppm of no less than 75%.
For COc1ccc(F)cc1C(O)Cn1cc(C=NOC(C)C)c(=O)n(C(C)C(=O)N2CCSCC2)c1=O (centres unmarked) [A-72], the pest or weed control at 125 ppm was no less than 75%.
COc1ccc(F)cc1C(O)Cn1cc(/C=N\OC(C)C)c(=O)n(CC(=O)N2CCCCC2)c1=O (centres unmarked) [A-83] was tested, and the pest or weed control at 125 ppm was no less than 75%.
For COc1ccc(F)cc1C(O)Cn1cc(C=NOC(C)C)c(=O)n(CC(=O)NC(C)C)c1=O (centres unmarked) [A-85], the pest or weed control at 125 ppm was no less than 75%.
For COc1ccc(F)cc1C(O)Cn1cc(C=NOC(C)C)c(=O)n(C(C)C(=O)NC2CC2)c1=O (centres unmarked) [A-87], the pest or weed control at 125 ppm was no less than 75%.
With COc1ccc(F)cc1C(Cn1cc(C=NOC(C)(C)C)c(=O)n(C(C)C(=O)NC(C)C)c1=O)OCCC#N (centres unmarked) [A-98] the pest or weed control at 125 ppm was no less than 75%.
CCON=Cc1cn(CCc2ccccc2OC)c(=O)n(C(C)C(=O)OCC)c1=O (centres unmarked) [A-103] gave a pest or weed control at 125 ppm of no less than 75%.
With CCON=Cc1cn(CCc2ccccc2OC)c(=O)n(C(C)C(=O)N2CCCC2)c1=O (centres unmarked) [A-104] the pest or weed control at 125 ppm was no less than 75%.
Work on CCON=Cc1cn(CCc2ccccc2OC)c(=O)n(C(C)C(=O)NC(C)C)c1=O (centres unmarked) [A-107] yielded a pest or weed control at 125 ppm of no less than 75%.
Work on CCCn1c(=O)c(/C(C)=N/OC(C)C)cn(CC(O)c2cc(F)ccc2OC)c1=O (centres unmarked) [B-7] yielded a pest or weed control at 125 ppm of no less than 75%.
Work on COc1ccccc1CCn1cc(/C(N)=N/OC(C)C)c(=O)n(CCc2ccccc2OC)c1=O [B-8] yielded a pest or weed control at 125 ppm of no less than 75%.
CCO/N=C(\N)c1cn(CCc2ccccc2OC)c(=O)n(CCc2ccccc2OC)c1=O [B-9] was tested, and the pest or weed control at 125 ppm was no less than 75%.

These compounds were tested on Aspergillus niger (assay: Antimicrobial test against Aspergillus niger). Details: 96 h, Vogel medium, 25° C., 4 days in the dark, turbidity at 405 nm, read-out: growth inhibition rate.
Type: cell-based
Procedure: Spores of Aspergillus niger were added to and dispersed in a Vogel medium, and a dihydropyrimidine compound dissolved in dimethyl sulfoxide was added and mixed thereto at 25 ppm. The resulting solution was dispensed onto a 96-well microplate and cultivated in the dark at 25° C. for 4 days.
After the cultivation, the turbidity at a wavelength of 405 nm was measured by a microplate reader and compared with that in the untreated case to determine the growth inhibition of Aspergillus niger (%) was determined.
With COc1ccccc1C(O)Cn1cc(/C(C)=N/OC(C)C)c(=O)n(C[C@H](CC(C)C)NC(=O)C(C)C)c1=O (some centres unmarked) [C-43] the inhibition at 25 ppm was no less than 50%.
CC[C@@H](Cn1c(=O)c(/C(C)=N/OC(C)C)cn(CC(O)c2cc(F)ccc2OC)c1=O)NC(=O)C(C)(C)C (some centres unmarked) [C-58] gave an inhibition at 25 ppm of no less than 50%.
Work on COc1ccc(F)cc1C(O)Cn1cc(/C(C)=N/OC(C)C)c(=O)n(C[C@H](CC(C)C)NC(=O)N(C)C)c1=O (some centres unmarked) [C-60] yielded an inhibition at 25 ppm of no less than 50%.
With CCC(=O)N[C@@H](CC(C)C)Cn1c(=O)c(/C(C)=N/OC(C)C)cn(CC(O)c2cc(F)ccc2OC)c1=O (some centres unmarked) [C-62] the inhibition at 25 ppm was no less than 50%.
In the case of COc1ccc(F)cc1C(O)Cn1cc(/C(C)=N/OC(C)C)c(=O)n(C[C@@H](NC(=S)N(C)C)C(C)C)c1=O (some centres unmarked) [C-63], the inhibition at 25 ppm is reported as no less than 50%.
COc1ccc(F)cc1C(O)Cn1cc(/C(C)=N/OC(C)C)c(=O)n(C[C@@H](NC(=O)N(C)C)C(C)C)c1=O (some centres unmarked) [C-69] was tested, and the inhibition at 25 ppm was no less than 50%.
In the case of COc1ccc(F)cc1C(O)Cn1cc(/C(C)=N/OC(C)C)c(=O)n(C[C@@H](NC(=O)CSC)C(C)C)c1=O (some centres unmarked) [C-75], the inhibition at 25 ppm is reported as no less than 50%.
COc1ccccc1C(O)Cn1cc(/C(C)=N/OC(C)C)c(=O)n(C[C@@H](NC(=O)N(C)C)C(C)C)c1=O (some centres unmarked) [C-77] showed an inhibition at 25 ppm of no less than 50%.
For COc1ccccc1C(O)Cn1cc(/C(C)=N/OC(C)C)c(=O)n(C[C@@H](NC(=O)C2CCC2)C(C)C)c1=O (some centres unmarked) [C-79], the inhibition at 25 ppm was no less than 50%.
Work on COc1ccc(F)cc1C(O)Cn1cc(/C(C)=N/OC(C)C)c(=O)n(C[C@@H](NC(=O)C(Cl)Cl)C(C)C)c1=O (some centres unmarked) [C-81] yielded an inhibition at 25 ppm of no less than 50%.
COc1ccc(F)cc1C(O)Cn1cc(/C(C)=N/OC(C)C)c(=O)n(C[C@@H](NC(=O)C2CC2)C(C)C)c1=O (some centres unmarked) [C-103] gave an inhibition at 25 ppm of no less than 50%.
C=CC(=O)N[C@H](Cn1c(=O)c(/C(C)=N/OC(C)C)cn(CC(O)c2cc(F)ccc2OC)c1=O)C(C)C (some centres unmarked) [C-109] gave an inhibition at 25 ppm of no less than 50%.
With COc1ccc(F)cc1C(O)Cn1cc(/C(C)=N/OC(C)C)c(=O)n(C[C@H](C)NC(=O)CC(C)C)c1=O (some centres unmarked) [C-124] the inhibition at 25 ppm was no less than 50%.
COc1ccc(F)cc1C(O)Cn1cc(/C(C)=N/OC(C)C)c(=O)n(C[C@H](C)NC(=O)C(C)(C)C)c1=O (some centres unmarked) [C-126] was tested, and the inhibition at 25 ppm was no less than 50%.
Compound COc1ccccc1C(O)Cn1cc(/C(C)=N/OC(C)C)c(=O)n(C[C@@H](NC(=O)C(C)(C)C)C(C)C)c1=O (some centres unmarked) [C-129] has an inhibition at 25 ppm of no less than 50%.
In the case of CCC(=O)N[C@@H](C)Cn1c(=O)c(/C(C)=N/OC(C)C)cn(CC(O)c2cc(F)ccc2OC)c1=O (some centres unmarked) [C-137], the inhibition at 25 ppm is reported as no less than 50%.
COc1ccc(F)cc1C(O)Cn1cc(/C(C)=N/OC(C)C)c(=O)n(C[C@H](C)NC(=O)C2CC2)c1=O (some centres unmarked) [C-141] gave an inhibition at 25 ppm of no less than 50%.
Compound COc1ccc(F)cc1C(O)Cn1cc(/C(C)=N/OC(C)C)c(=O)n(C[C@H](Cc2ccccc2)NC(=O)C(C)C)c1=O (some centres unmarked) [C-168] has an inhibition at 25 ppm of no less than 50%.
Compound CC/C(=N\OC(C)C)c1cn(CC(O)c2cc(F)ccc2OC)c(=O)n(C[C@H](C)NC(=O)C(C)C)c1=O (some centres unmarked) [C-172] has an inhibition at 25 ppm of no less than 50%.
For COC(=O)N[C@@H](C)Cn1c(=O)c(/C(C)=N/OC(C)C)cn(CC(O)c2cc(F)ccc2OC)c1=O (some centres unmarked) [C-186], the inhibition at 25 ppm was no less than 50%.
COc1ccc(F)cc1C(O)Cn1cc(/C(C)=N/OC(C)C)c(=O)n(C[C@H](C)NC(=O)OC(C)C)c1=O (some centres unmarked) [C-188] gave an inhibition at 25 ppm of no less than 50%.
C/C(=N\OC(C)C)c1cn(CC(O)c2ccccc2OC(F)(F)F)c(=O)n(C[C@H](C)NC(=O)C(C)C)c1=O (stereo partly drawn) [C-194, N-((2S)-1-(3-(2-hydroxy-2-(2-(trifluoromethoxy)phenyl)ethyl)-5-((E)-1-(isopropoxyimino)ethyl)-2,6-dioxo-3,6-dihydropyrimidin-1(2H)-yl)propan-2-yl)isobutyramide] was tested, and the inhibition at 25 ppm was no less than 50%.
For COc1ccc(F)cc1C(O)Cn1cc(/C(C)=N/OC(C)C)c(=O)n(C[C@@H](NC(=O)C(C)C)c2ccccc2)c1=O (some centres unmarked) [C-202], the inhibition at 25 ppm was no less than 50%.
For C/C(=N\OC(C)C)c1cn(CC(O)c2ccccc2C)c(=O)n(C[C@H](C)NC(=O)C(C)C)c1=O (some centres unmarked) [C-213], the inhibition at 25 ppm was no less than 50%.
C=C(C)C(=O)N1CCC[C@H]1Cn1c(=O)c(/C(C)=N/OC(C)C)cn(CC(O)c2cc(F)ccc2OC)c1=O (stereo partly drawn) [D-11] gave an inhibition at 25 ppm of no less than 50%.
Compound COc1ccc(F)cc1C(O)Cn1cc(/C(C)=N/OC(C)C)c(=O)n(C[C@@H]2CCCN2C(=O)C(C)C)c1=O (stereo partly drawn) [D-20] has an inhibition at 25 ppm of no less than 50%.
Compound COc1ccc(F)cc1C(O)Cn1cc(/C(C)=N/OC(C)C)c(=O)n(C[C@@H]2CCCN2C(=O)N(C)C)c1=O (stereo partly drawn) [D-22] has an inhibition at 25 ppm of no less than 50%.
In the case of COc1ccc(Cn2c(=O)c(/C(C)=N/OC(C)C)cn(CC(O)c3cc(F)ccc3OC)c2=O)cc1 [D-52], the inhibition at 25 ppm is reported as no less than 50%.
For COc1cccc(Cn2c(=O)c(/C(C)=N/OC(C)C)cn(CC(O)c3cc(F)ccc3OC)c2=O)c1 [D-53], the inhibition at 25 ppm was no less than 50%.
For COc1ccccc1Cn1c(=O)c(/C(C)=N/OC(C)C)cn(CC(O)c2cc(F)ccc2OC)c1=O [D-54], the inhibition at 25 ppm was no less than 50%.
Compound COc1ccc(F)cc1C(O)Cn1cc(/C(C)=N/OC(C)C)c(=O)n(Cc2ccccn2)c1=O [D-56] has an inhibition at 25 ppm of no less than 50%.

Reference: patent publication US12593845B2 (priority 2019, dated 2026)
